Results on 8 compounds are retold here after US7691890B2, “Anti-viral uses of leflunomide products” (priority 1998, dated 2010).

Read-outs that look alike come from different tables or passages of the source.

Data set [1] relates to Parainfluenza Type 3 Virus. Kind of data set: organism not typed. The class given is cell-based, parainfluenza type 3 virus (14702). As to conditions: for CPE Inhibition test SI: IC50 divided by EC50.
In data set [2] the test system is Respiratory Syncytial Virus A. Kind of data set: microbe, parasite or virus in culture. The class given is cell-based, Respiratory syncytial virus (RSV) (A2). As to conditions: for CPE Inhibition test SI: IC50 divided by EC50.
In data set [3] the test system is Parainfluenza Type 3 Virus. Kind of data set: organism not typed. The class given is cell-based, parainfluenza type 3 virus (14702). As to conditions: for Neutral Red Uptake test SI: IC50 divided by EC50.
In data set [4] the test system is Measles Virus. In words: microbe, parasite or virus in culture. Format: cell-based, Measles virus (Chicago strain). As to conditions: for Neutral Red Uptake test SI: IC50 divided by EC50.
Data set [5] deals with Respiratory Syncytial Virus A. In words: microbe, parasite or virus in culture. Format: cell-based, Respiratory syncytial virus (RSV) (A2). As to conditions: for Neutral Red Uptake test SI: IC50 divided by EC50.
In data set [6] the test system is Measles Virus. Kind of data set: microbe, parasite or virus in culture. As to conditions: for CPE Inhibition test SI: IC50 divided by EC50. Format: cell-based, Measles virus (Chicago strain).
Data set [7] relates to rat CMV (RCMV RA67, Maastricht strain). In words: Rat CMV infection of immunodeficient nude rats, tissue plaque assay. Format: in vivo. As to conditions: RCMV i.p., leflunomide 15 mg/kg/day for 14 days, 14 days post-inoculation.
The conditions of data set [8]: in vivo; cited from earlier work.
Data set [9] concerns Influenza A (H3N2). Kind of data set: Neutral red uptake test. As to conditions: IC50 divided by EC50.
The next data set relates to hepatitis B virus (HBV). In words: microbe, parasite or virus in culture. Format: cell-based. As to conditions: for EC50 / EC90: Hepatitis B virus, 216 h; for EC90: HBV DNA, 9 day treatment.
The subject of data set [10] is Rhinovirus Type 5. In words: Neutral red uptake test. As to conditions: IC50 divided by EC50. The class given is cell-based.
For data set [11], the system named is Influenza B. In words: Neutral red uptake test. As to conditions: IC50 divided by EC50.
In data set [12] the test system is Influenza A (H3N2). Kind of data set: CPE inhibition test. As to conditions: for CPE Inhibition test SI: Influenza A (H3N2), IC50 divided by EC50; for EC50: Influenza A virus, H3N2, MDCK, read-out: CPE Inhibition test EC50. The class given is cell-based.
Data set [13] deals with Influenza A (H1N1). In words: Neutral red uptake test. As to conditions: IC50 divided by EC50.
For data set [14], the system named is Rhinovirus Type 5. The class given is cell-based. As to conditions: IC50 divided by EC50.
The test system of data set [15] is Influenza A (H1N1). In words: CPE inhibition test. Format: cell-based. As to conditions: for CPE Inhibition test SI: Influenza A (H1N1), IC50 divided by EC50; for EC50: Influenza A virus, H1N1, MDCK, read-out: CPE Inhibition test EC50.
The subject of data set [16] is Adenovirus Type 1. In words: CPE inhibition test. The class given is cell-based, Adenovirus type 1 (65089/Chicago). As to conditions: IC50 divided by EC50.
Data set [17] is described as follows: Toxicity to 2.2.15 cells by neutral red dye uptake. As to conditions: human, 2.2.15 human liver cells. Format: cell-based.
Protocol: Toxicity of test compounds to cultures of 2.2.15 cells was also determined as follows. Four concentrations of each compound were assayed and compared to untreated control cultures. Toxicity was determined by the uptake of neutral red dye, as determined by absorbance at 510 nm relative to untreated cells.
The subject of data set [18] is Adenovirus Type 1. Kind of data set: Neutral red uptake test. The class given is cell-based, Adenovirus type 1 (65089/Chicago). As to conditions: IC50 divided by EC50.
The test system of data set [19] is Influenza B. In words: CPE inhibition test. The class given is cell-based. As to conditions: for EC50: Influenza B virus, MDCK, read-out: CPE Inhibition test EC50; for CPE Inhibition test SI: Influenza B, IC50 divided by EC50.
For data set [20] the following is noted: cited from earlier work.
In data set [21] the test system is CMV pp65, 72 kD IE1, glycoprotein B (gB). In words: Immunohistochemical staining of CMV proteins in infected HUVEC. The class given is cell-based. As to conditions: CMV VHL/E, 200 μM A771726 or 1 mM PFA.
Protocol: Slides were incubated in the presence of absence of the agents for various intervals, acetone-fixed, and stained by the immunoperoxidase method.
The test system of another data set is CMV DNA polymerase. The class given is biochemical. As to conditions: extracts of VHL/E-infected HUVEC or P8-infected HFF, various concentrations.
The subject of a further data set is CMV DNA. Kind of data set: Dot blot quantitation of viral DNA in CMV-infected cells. Format: cell-based. As to conditions: CMV P8-infected HFF, 48 hours, 100 μM A771726 or 1 mM PFA; identical results in HUVEC (200 μM).

Consider `NC(=O)c1ncn([C@@H]2O[C@H](CO)[C@@H](O)[C@H]2O)n1` [ribavirin, reference compound], for which the 50% effective concentration (EC50) (as a rule, the concentration at which the effect is half-maximal) in [1] (MA104, MA-104 cells, read-out: CPE Inhibition test EC50) was determined as 230 µM; in [2] (human respiratory syncytial virus, MA104, MA-104 cells, read-out: CPE Inhibition test EC50), 290 µM; in data set [3] (MA104, MA-104 cells, read-out: Neutral Red Uptake test EC50) it was 120 µM; with Measles Virus [4] (Measles morbillivirus, CV-1 cells, read-out: Neutral Red Uptake test EC50), 41 µM; in data set [5] (human respiratory syncytial virus, MA104, MA-104 cells, read-out: Neutral Red Uptake test EC50) it was 82 µM; with Measles Virus [6] (Measles morbillivirus, CV-1 cells, read-out: CPE Inhibition test EC50) it was 41 µM.

With `Cc1oncc1C(=O)Nc1ccc(C(F)(F)F)cc1` [leflunomide, N-(4-trifluoromethylphenyl)-5-methylisoxazol-4-carboxamide], the “viral load in salivary glands, lungs and spleens” value in data set [7] is “significantly reduced viral load”. Also, the “toxicity in animal studies” value in [8] was “liver and cardiac toxicity”.

In the case of `Cc1nocc1C(=O)Nc1ccc(C(F)(F)F)cc1` [Compound 99-126, N-(4-trifluoromethylphenyl)-3-methylisoxazol-4-carboxamide], the “Neutral Red Uptake test SI” value was found to be 1.0 in the data set on Influenza A (H3N2) [9]; 0 in the data set on Rhinovirus Type 5 [10]; 1.0 in the data set on Influenza B [11]; 1.0 in the data set on Influenza A (H1N1) [13]; 1 in data set [3]; 2 in the data set on Measles Virus [4]. The “Neutral Red Uptake test SI” value (in [5]; with Adenovirus Type 1 [18]) was 0 in each case. For the same compound, the EC50 in the data set on hepatitis B virus (HBV) is above 100 µM; in the data set on Influenza A (H3N2) [12], above 200 µM; in the data set on Influenza A (H1N1) [15] it was above 20 µM; in the data set with Influenza B [19], 60 µM. Also, the EC90 (usually the concentration needed for an effect of 90%) with hepatitis B virus (HBV) (2.2.15 cells) was above 100 µM. Moreover, in the data set on hepatitis B virus (HBV) (summary of Table 2), the “anti-viral effect on HBV (in words)” value is recorded as “some anti-viral effect”. In addition, the “CPE Inhibition test SI” value in the data set on Influenza A (H3N2) [12] was 0; in data set [1], 0; with Rhinovirus Type 5 [14], 1; in the data set on Influenza A (H1N1) [15] it was below 3.2; in data set [2] it was 0; in the data set with Adenovirus Type 1 [16], 0. Further, the “CPE Inhibition test SI” value in the data set on Measles Virus [6] was determined as 6; in the data set with Influenza B [19] it was 1.2. In addition, half-maximal cytotoxicity in [17] (CC50) was put at 110 µM.

`Nc1ccn(C[C@@H](CO)OCP(=O)(O)O)c(=O)n1` [Cidofovir]: the neutropenia entry in data set [20] (in vivo) is “approximately 10 % of recipients”.

On to `O=C([O-])P(=O)(O)O.[Na+]` [PFA, sodium phosphonoformate], for which the “expression of CMV pp65 and IE1” value in [21] (24-48 hr pi) is listed as “unimpeded”. For the same compound, the “expression of CMV late structural glycoprotein B (gB)” value in [21] (96 hours pi) is reported as “unable to express gB”. The “CMV DNA polymerase activity” value in the data set with CMV DNA polymerase is “complete inhibition at 1 mM”. Also, the “frequency of each toxicity (renal dysfunction, hypomagnesemia, hypokalemia, hypocalcemia, seizures, fever, rash)” value in data set [20] (intravenous foscarnet) is on record as “more than 5% of recipients”. Besides, the “quantity of viral DNA synthesized” value with CMV DNA was “no detectable CMV DNA”.

`Nc1ncnc2c1ncn2C[C@@H](CO)OCP(=O)(O)O` [HPMPA, reference compound]: the “CPE Inhibition test SI” value in the data set with Adenovirus Type 1 [16] worked out at 8. For the same compound, the “Neutral Red Uptake test SI” value with Adenovirus Type 1 [18] is recorded as above 20.

As to `Cc1oncc1C(=O)Nc1cccc(C(F)(F)F)c1` [Compound 99-127, N-(3-trifluoromethylphenyl)-5-methylisoxazol-4-carboxamide], the “Neutral Red Uptake test SI” value was 1.0 with Influenza A (H3N2) [9]; 1.1 in the data set on Influenza B [11]; 1.0 in the data set with Influenza A (H1N1) [13]; 0 in [3]; 0 in the data set with Measles Virus [4]; 0 in data set [5]. This compound registered an SI in the data set with hepatitis B virus (HBV) (HBV, 2.2.15 cells) of 0.7. Besides, the EC50 in the data set with hepatitis B virus (HBV) was 11 µM; in the data set on Influenza A (H3N2) [12] it was above 200 µM; in the data set with Influenza A (H1N1) [15], above 200 µM; in the data set with Influenza B [19], above 200 µM. Further, the EC90 with hepatitis B virus (HBV) (2.2.15 cells) came to 96 µM. The “CPE Inhibition test SI” value (in the data set on Influenza A (H3N2) [12]; in data set [1]; with Influenza A (H1N1) [15]; in [2]; with Measles Virus [6]; in the data set on Influenza B [19]) was 0 in each case. Half-maximal cytotoxicity in [17] (CC50) was put at 67 µM.

In the data set with hepatitis B virus (HBV), `O=c1ccn([C@@H]2O[C@H](CO)[C@@H](O)[C@H]2O)c(=O)[nH]1` [uridine] had an EC50 above 100 µM. For the same compound, in the data set with hepatitis B virus (HBV) (2.2.15 cells), the EC90 was above 100 µM. Besides, the CC50 – broadly, the concentration giving 50% cytotoxicity – in data set [17] is above 100 µM.
